Values of other authors in patent publication US20050026902A1, “Methods and compositions for the treatment or prevention of human immunodeficiency virus and related conditions using cyclooxygenase-2 selective inhibitors and antiviral agents” (priority 2003, published 2005).
Where two headings read alike, the source gives them in different places.

Assays:
[1] = human, in vivo, po
[2] = human, in vivo, po; remark: listed apart in the source
[3] = human, in vivo
[4] = target: HIV-1 RT from the HxB2 clone (RT-SHIV) (Human immunodeficiency virus type 1 group M subtype B, UniProt P04585); conditions: in vitro tests
RT-SHIV = conditions: in vitro tests

Row | Compound | Food Effect [1] | Food Effect [2] | Food Effect [3] | other results
1 | Cc1cn([C@H]2C[C@H](N=[N+]=[N-])[C@@H](CO)O2)c(=O)[nH]c1=O [Zidovudine] | None |  |  | 
2 | Cc1c(O)cccc1C(=O)N[C@@H](CSc1ccccc1)[C@H](O)CN1C[C@H]2CCCC[C@H]2C[C@H]1C(=O)NC(C)(C)C [Nelfinavir, nelfinavir] |  | Take with food if possible |  | 
3 | CC(C)Nc1cccnc1N1CCN(C(=O)c2cc3cc(NS(C)(=O)=O)ccc3[nH]2)CC1 [Delavirdine] |  |  | None | 
4 | Nc1nc(NC2CC2)c2ncn([C@H]3C=C[C@@H](CO)C3)c2n1 [Abacavir] | None |  |  | 
5 | CC(C)c1nc(CN(C)C(=O)N[C@H](C(=O)N[C@@H](Cc2ccccc2)C[C@H](O)[C@H](Cc2ccccc2)NC(=O)OCc2cncs2)C(C)C)cs1 [Ritonavir, ritonavir] |  | Take with food if possible |  | 
6 | CC(C)CN(C[C@@H](O)[C@H](Cc1ccccc1)NC(=O)O[C@H]1CCOC1)S(=O)(=O)c1ccc(N)cc1 [Amprenavir] |  | Avoid taking |  | 
7 | O=C1Nc2ccc(Cl)cc2[C@@](C#CC2CC2)(C(F)(F)F)O1 [Efavirenz] |  |  | Avoid taking | 
8 | Cc1cn([C@H]2C=C[C@@H](CO)O2)c(=O)[nH]c1=O [Stavudine] | None |  |  | 
9 | Nc1ccn([C@H]2CC[C@@H](CO)O2)c(=O)n1 [Zalcitabine] | None |  |  | 
10 | Cc1ccnc2c1NC(=O)c1cccnc1N2C1CC1 [Nevirapine, nevirapine] |  |  | None | inhibition of the RT activity of RT-SHIV [4]: could inhibit; inhibition of replication of RT-SHIV (RT-SHIV): could inhibit
